Laboratory results: patent US20240132431A1, “METHOD FOR ALKYLATING ACIDIC FUNCTIONAL GROUP” (Chugai Seiyaku Kabushiki Kaisha, priority 2021, published 2024)
Values belong to the compound of their own block, whether it stands above or below them.

Molecular target: T1, Bcl-2 protein (Recombinant Human Bcl-2 Protein) (Homo sapiens, UniProt P10415)
T1 construct: purchased Novus NBP2-34889
Assay: Binding evaluation of mixture library compounds to Bcl-2 using AS-MS (affinity selection mass spectrometry)
Settings: for ASMS ratio (%) n = 1 / ASMS ratio (%) n = 2: ASMS Ratio(%)=(A−C)/B×100; for ASMS ratio (%) n = 1: replicate n = 1; for ASMS ratio (%) n = 2: replicate n = 2
Method in brief: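 ASMS Ratio (%) was calculated as (A−C)/B×100, where A is the protein sample after SEC, B the protein-free sample without SEC and C the protein-free sample after SEC. Each compound was at […] in a 1200-member pool with 20 μM Bcl-2, incubated 1 h at 23° C.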

[1] = AS-MS, mixture of 1200 compounds, Bcl-2
[2] = AS-MS on the mixture of 1200 library compounds

T1 sequence (P10415 whole entry): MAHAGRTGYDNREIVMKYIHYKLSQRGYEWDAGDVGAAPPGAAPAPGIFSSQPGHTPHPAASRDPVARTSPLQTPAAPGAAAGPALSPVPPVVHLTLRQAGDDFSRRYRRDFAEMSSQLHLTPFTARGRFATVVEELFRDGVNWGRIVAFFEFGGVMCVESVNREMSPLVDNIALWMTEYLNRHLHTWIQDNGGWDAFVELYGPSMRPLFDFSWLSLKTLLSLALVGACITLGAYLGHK

Compound: CCOc1cccc(-c2ccc(C(=O)N3CCN(c4ccc(C(=O)NS(=O)(=O)C(C)(C)C)cc4)CC3)cc2C)c1 [B2L025-01, N-tert-Butylsulfonyl-4-[4-[4-(3-ethoxyphenyl)-3-methylbenzoyl]piperazin-1-yl]benzamide]
- ASMS ratio (%) (n = 1): 0.0%
- ASMS ratio (%) (n = 2): 0.0%

Compound: CCOc1cccc(-c2cc(CN3CCN(c4ccc(C(=O)NS(=O)(=O)c5ccc(NCCSc6ccccc6)c([N+](=O)[O-])c5)nn4)CC3)cc(OCC)c2)c1 [B2Q081-01, 6-[4-[[3-Ethoxy-5-(3-ethoxyphenyl)phenyl]methyl]piperazin-1-yl]-N-[3-nitro-4-(2-phenylsulfanylethylamino)phenyl]sulfonylpyridazine-3-carboxamide]
- ASMS ratio (%) n = 1 (AS-MS, mixture library, Bcl-2): −4.8%
- ASMS ratio (%) n = 2 (AS-MS, mixture library, Bcl-2): 0.6%

Compound: CCOc1cncc(-c2cc(C(=O)N3CCN(c4ccc(C(=O)NS(=O)(=O)c5ccc(NCCSc6ccccc6)c(C(F)(F)F)c5)cc4)CC3)cc(C(F)(F)F)c2)c1 [B2R040-01, 4-[4-[3-(5-Ethoxypyridin-3-yl)-5-(trifluoromethyl)benzoyl]piperazin-1-yl]-N-[4-(2-phenylsulfanylethylamino)-3-(trifluoromethyl)phenyl]sulfonylbenzamide]
- ASMS ratio (%) (n = 1): 2.6%
- ASMS ratio (%) (n = 2): 0.2%

Compound: CCOc1cncc(C#Cc2ccccc2C(=O)N2CCN(c3ccc(C(=O)NS(=O)(=O)CCC(F)(F)F)cc3)CC2)c1 [B2N030-01, 4-[4-[2-[2-(5-Ethoxypyridin-3-yl)ethynyl]benzoyl]piperazin-1-yl]-N-(3,3,3-trifluoropropylsulfonyl)benzamide]
- ASMS ratio (%) (n = 1): 0.0%
- ASMS ratio (%) (n = 2): 0.0%

Compound: CCOc1cccc(-c2cnn(-c3cc(C(=O)N4CCN(c5ccc(C(=O)NS(=O)(=O)c6ccc(NCCSc7ccccc7)c([N+](=O)[O-])c6)nn5)CC4)cc(C(F)(F)F)c3)c2)c1 [B2Q021-01, 6-[4-[3-[4-(3-Ethoxyphenyl)pyrazol-1-yl]-5-(trifluoromethyl)benzoyl]piperazin-1-yl]-N-[3-nitro-4-(2-phenylsulfanylethylamino)phenyl]sulfonylpyridazine-3-carboxamide]
- ASMS ratio (%) n = 1 (AS-MS, mixture library, Bcl-2): 0.0%
- ASMS ratio (%) n = 2 (AS-MS, mixture library, Bcl-2): 0.0%

Compound: CCOc1cccc(-c2cc(CN3CCN(c4ccc(C(=O)NS(=O)(=O)C(C)(C)C)nn4)CC3)cc(OC(C)C)c2)c1 [B2L083-01, N-tert-Butylsulfonyl-6-[4-[[3-(3-ethoxyphenyl)-5-propan-2-yloxyphenyl]methyl]piperazin-1-yl]pyridazine-3-carboxamide]
- ASMS ratio (%) (n = 1): 0.0%
- ASMS ratio (%) (n = 2): 0.0%

Compound: CCOc1cccc(-c2ccc(C(=O)N3CCN(c4ccc(C(=O)NS(=O)(=O)C(C)(C)C)nn4)CC3)cc2F)c1 [B2L005-01, N-tert-Butylsulfonyl-6-[4-[4-(3-ethoxyphenyl)-3-fluorobenzoyl]piperazin-1-yl]pyridazine-3-carboxamide]
- ASMS ratio (%) (n = 1): 0.0%
- ASMS ratio (%) (n = 2): 0.0%

Compound: CCOc1cccc(-c2ccc(CN3CCN(c4ccc(C(=O)NS(=O)(=O)c5ccc(NCCSc6ccccc6)c(C(F)(F)F)c5)nn4)CC3)c3ccccc23)c1 [B2R091-01, 6-[4-[[4-(3-Ethoxyphenyl)naphthalen-1-yl]methyl]piperazin-1-yl]-N-[4-(2-phenylsulfanylethylamino)-3-(trifluoromethyl)phenyl]sulfonylpyridazine-3-carboxamide]
- ASMS ratio (%) (n = 1): −3.5%
- ASMS ratio (%) (n = 2): 1.8%

Compound: 6-[4-[3-(5-Ethoxypyridin-3-yl)-5-(trifluoromethyl)benzoyl]piperazin-1-yl]-N-propylpyridazine-3-carboxamide [B1M007-01]
- ASMS ratio (%) n = 1 [1]: 0.3%
- ASMS ratio (%) n = 2 [1]: 0.3%

Compound: CCOc1cccc(-c2ccc(C(=O)N3CCN(c4ccc(C(=O)NS(=O)(=O)c5ccc(NCCSc6ccccc6)c(C(F)(F)F)c5)cc4)CC3)c3ccccc23)c1 [B2R035-01, 4-[4-[4-(3-Ethoxyphenyl)naphthalene-1-carbonyl]piperazin-1-yl]-N-[4-(2-phenylsulfanylethylamino)-3-(trifluoromethyl)phenyl]sulfonylbenzamide]
- ASMS ratio (%) (n = 1): 8.3%
- ASMS ratio (%) (n = 2): 0.9%

Compound: CCOc1cccc(-c2cc(CN3CCN(c4ccc(C(=O)NS(=O)(=O)CCC(F)(F)F)nn4)CC3)cc(OC(F)(F)F)c2)c1 [B2N089-01, 6-[4-[[3-(3-Ethoxyphenyl)-5-(trifluoromethoxy)phenyl]methyl]piperazin-1-yl]-N-(3,3,3-trifluoropropylsulfonyl)pyridazine-3-carboxamide]
- ASMS ratio (%) (n = 2): 0.0%

Compound: 4-[4-[3-(5-Ethoxypyridin-3-yl)-5-(trifluoromethyl)benzoyl]piperazin-1-yl]-N-propylbenzamide [B1M008-01]
- ASMS ratio (%) n = 2 [1]: 0.0%

Compound: CCOc1cncc(-c2ccccc2CCC(=O)N2CCN(c3ccc(C(=O)NS(C)(=O)=O)cc3)CC2)c1 [B2I034-01, 4-[4-[3-[2-(5-Ethoxypyridin-3-yl)phenyl]propanoyl]piperazin-1-yl]-N-methylsulfonylbenzamide]
- ASMS ratio (%) n = 1 (AS-MS, mixture library, Bcl-2): 0.0%
- ASMS ratio (%) n = 2 (AS-MS, mixture library, Bcl-2): 1.6%

Compound: 6-[4-[[4-(5-Ethoxypyridin-3-yl)-3-fluorophenyl]methyl]piperazin-1-yl]-N-propylpyridazine-3-carboxamide [B1M086-01]
- ASMS ratio (%) n = 1 [2]: 0.0%
- ASMS ratio (%) n = 2 [2]: 0.0%

Compound: CCOc1cncc(-c2csc(C(=O)N3CCN(c4ccc(C(=O)NS(=O)(=O)c5ccc(NCCSc6ccccc6)c(C(F)(F)F)c5)cc4)CC3)c2)c1 [B2R024-01, 4-[4-[4-(5-Ethoxypyridin-3-yl)thiophene-2-carbonyl]piperazin-1-yl]-N-[4-(2-phenylsulfanylethylamino)-3-(trifluoromethyl)phenyl]sulfonylbenzamide]
- ASMS ratio (%) (n = 1): 0.0%
- ASMS ratio (%) (n = 2): −1.2%

Second part, the compound after the results:

- ASMS ratio (%) n = 1 [1]: 6.3%
- ASMS ratio (%) n = 2 [1]: −8.4%
Compound: CCOc1cccc(-c2cc(C(=O)N3CCN(c4ccc(C(=O)NCC56CC7CC(CC(C7)C5)C6)cc4)CC3)cc(C(F)(F)F)c2)c1 [B1A039-01, N-(1-Adamantylmethyl)-4-[4-[3-(3-ethoxyphenyl)-5-(trifluoromethyl)benzoyl]piperazin-1-yl]benzamide]

- ASMS ratio (%) n = 1 [1]: 1.6%
- ASMS ratio (%) n = 2 [1]: −0.9%
Compound: CCOc1cccc(-c2ccccc2CN2CCN(c3ccc(C(=O)NCC(F)(F)F)nn3)CC2)c1 [B1K071-01, 6-[4-[[2-(3-Ethoxyphenyl)phenyl]methyl]piperazin-1-yl]-N-(2,2,2-trifluoroethyl)pyridazine-3-carboxamide]

- ASMS ratio (%) n = 1 (AS-MS, mixture library, Bcl-2): 0.0%
- ASMS ratio (%) n = 2 (AS-MS, mixture library, Bcl-2): 0.0%
Compound: CCOc1cncc(-c2cc(OC)c(CN3CCN(c4ccc(C(=O)NS(=O)(=O)CC56CC7CC(CC(C7)C5)C6)nn4)CC3)c(OC)c2)c1 [B2A086-01, N-(1-Adamantylmethylsulfonyl)-6-[4-[[4-(5-ethoxypyridin-3-yl)-2,6-dimethoxyphenyl]methyl]piperazin-1-yl]pyridazine-3-carboxamide]

- ASMS ratio (%) n = 1 (AS-MS, mixture library, Bcl-2): 9.0%
- ASMS ratio (%) n = 2 (AS-MS, mixture library, Bcl-2): 0.3%
Compound: CCOc1cccc(-c2ccccc2CCC(=O)N2CCN(c3ccc(C(=O)NS(=O)(=O)CC45CC6CC(CC(C6)C4)C5)nn3)CC2)c1 [B2A011-01, N-(1-Adamantylmethylsulfonyl)-6-[4-[3-[2-(3-ethoxyphenyl)phenyl]propanoyl]piperazin-1-yl]pyridazine-3-carboxamide]

- ASMS ratio (%) n = 1 [2]: 2.5%
- ASMS ratio (%) n = 2 [2]: 2.4%
Compound: CCOc1cncc(-c2cc(CN3CCN(c4ccc(C(=O)N(C)CC56CC7CC(CC(C7)C5)C6)nn4)CC3)cc(C(F)(F)F)c2)c1 [B3A088-01, N-(1-Adamantylmethyl)-6-[4-[[3-(5-ethoxypyridin-3-yl)-5-(trifluoromethyl)phenyl]methyl]piperazin-1-yl]-N-methylpyridazine-3-carboxamide]

- ASMS ratio (%) n = 1 [1]: −6.5%
- ASMS ratio (%) n = 2 [1]: 9.9%
Compound: CCOc1cncc(-c2cc(C(=O)N3CCN(c4ccc(C(=O)NCC56CC7CC(CC(C7)C5)C6)nn4)CC3)cc(C(F)(F)F)c2)c1 [B1A018-01, N-(1-Adamantylmethyl)-6-[4-[3-(5-ethoxypyridin-3-yl)-5-(trifluoromethyl)benzoyl]piperazin-1-yl]pyridazine-3-carboxamide]

- ASMS ratio (%) n = 1 [2]: 8.4%
- ASMS ratio (%) n = 2 [2]: −15.2%
Compound: CCOc1cccc(C#Cc2cncc(C(=O)N3CCN(c4ccc(C(=O)N(C)CC56CC7CC(CC(C7)C5)C6)cc4)CC3)c2)c1 [B3A031-01, N-(1-Adamantylmethyl)-4-[4-[5-[2-(3-ethoxyphenyl)ethynyl]pyridine-3-carbonyl]piperazin-1-yl]-N-methylbenzamide]

- ASMS ratio (%) n = 1 [1]: −3.9%
- ASMS ratio (%) n = 2 [1]: −7.5%
Compound: CCOc1cccc(C#Cc2cc(C(=O)N3CCN(c4ccc(C(=O)NCC56CC7CC(CC(C7)C5)C6)nn4)CC3)cc(C(F)(F)F)c2)c1 [B1A019-01, N-(1-Adamantylmethyl)-6-[4-[3-[2-(3-ethoxyphenyl)ethynyl]-5-(trifluoromethyl)benzoyl]piperazin-1-yl]pyridazine-3-carboxamide]

- ASMS ratio (%) (n = 1): 0.0%
- ASMS ratio (%) (n = 2): 0.0%
Compound: CCOc1cccc(-c2cc(CN3CCN(c4ccc(C(=O)NS(=O)(=O)C(C)(C)C)nn4)CC3)cc(OCC)c2)c1 [B2L081-01, N-tert-Butylsulfonyl-6-[4-[[3-ethoxy-5-(3-ethoxyphenyl)phenyl]methyl]piperazin-1-yl]pyridazine-3-carboxamide]

- ASMS ratio (%) n = 1 [1]: 3.9%
- ASMS ratio (%) n = 2 [1]: −3.9%
Compound: CCOc1cccc(-c2ccc(CN3CCN(c4ccc(C(=O)NCC56CC7CC(CC(C7)C5)C6)nn4)CC3)c(OC)c2)c1 [B1A079-01, N-(1-Adamantylmethyl)-6-[4-[[4-(3-ethoxyphenyl)-2-methoxyphenyl]methyl]piperazin-1-yl]pyridazine-3-carboxamide]
